How the values were obtained:
Assay type in all cases: in vivo
[1] = tested on: cucumber cotyledons; experiment: growth (biomass) of cucumber cotyledons; settings: for stimulation of the growth of the cotyledons: applied alone; for Mean cotyledon biomass: 4 days in the dark at 21.5° C.; for Observed efficacy: % biomass increase compared to the control
Description: The effect of fluxapyroxad solo, dicamba solo and a mixture comprising both compounds on the growth (biomass) of cucumber cotyledons was evaluated. […] Subsequently, 20 to 30 cotyledons per treatment were cut and placed in a Petri dish containing 10 ml of the treatment solution as described below. Control cotyledons were treated with the 0.5% DMSO solution only. Following the incubation in the dark at 21.5° C. for 4 days the cotyledons were weight and the fresh biomass recorded (table 2). […] The efficacy of the tested active ingredients was calculated as % of biomass increase compared to the control: E=(a/b−1)·100 a corresponds to biomass of cotyledons after incubation in the treated plants in g; and b corresponds to biomass of cotyledons after incubation in the control in g. […] The expected efficacies of the combinations of the active ingredients were estimated using Colby's formula (Colby, S.

[2] = tested on: wheat leaves; experiment: relative weight loss of detached wheat leaves (drought tolerance); settings: for fresh weight loss: applied alone
Description: The relative weight loss of wheat leaves treated or not treated with fluxapyroxad, dicamba, and mixtures thereof as an indirect parameter for increased drought tolerance was assessed. Leaves of 10 to 14 days old wheat plants were detached and placed into Eppendorf caps containing 2.2 ml of the test solution as described below. The wheat leaves were incubated for 24 h at 25° C. and 50% relative humidity in a growth chamber. After incubation, the incubated leaves were removed from the solution and placed on filter paper in a growth chamber for 60 minutes (25° C., 50% rel. humidity). Fresh biomass of the leaves was assessed directly after incubation and in addition after 60 minutes. The difference in fresh weight was recorded as relative weight loss. The relative loss of fresh weight is calculated as: [formula] In the present example wheat plants of the variety ‘Monopol’ were grown at 18° C. for 10 days in the greenhouse prior to the treatment and the incubation. 10 plants per treatment were treated and incubated as described. Fluxapyroxad and dicamba were dissolved on 0.5% DMSO. Tested concentrations are described in table 4. Control plants were treated with the blank 0.5% DMSO solution only. The efficacy of the tested compounds and mixtures was calculated as % of relative weight loss compared to the control: […] The expected efficacies of the combinations of the compounds were estimated using Colby's formula (Colby, S.

[3] = tested on: wheat plants; experiment: water loss through transpiration of cut wheat plants (drought tolerance); settings: for transpiration (water loss): applied alone
Description: The transpiration as an direct indicator of water stress of wheat plants treated or not treated with fluxapyroxad solo, dicamba solo, and respective mixtures thereof was assessed. 10 to 14 days old wheat plants were cut above the ground and placed into Eppendorf caps containing 2.2 ml of the test solution as described below. The wheat plants were incubated for 24 h at 25° C. and 50% relative humidity in a growth chamber. The weight of the Eppendorf cap including the test solution but excluding the plant was assessed before and after incubation. The difference in weight was recorded as the loss of water through transpiration. This assay was used to asses the drought tolerance of the plants. In the present example wheat plants of the variety ‘Monopol’ were grown at 18° C. for 10 days in the greenhouse prior to the treatment and the incubation. 10 plants per treatment were treated and incubated as described. Fluxapyroxad and dicamba were dissolved on 0.5% DMSO. The tested concentrations are described in table 3. Control plants were treated with the blank 0.5% DMSO solution only. The efficacy of the tested compounds and mixtures was calculated as % of water loss compared to the control; […] The expected efficacies of the combinations of the compounds were estimated using Colby's formula (Colby, S.

## COc1c(Cl)ccc(Cl)c1C(=O)O [Dicamba, dicamba]
[1]
  stimulation of the growth of the cotyledons: no stimulation of the growth
[1]; dicamba 1.25 ppm
  Mean cotyledon biomass: 48.2 mg
  Observed efficacy: 0.2%
[2]
  fresh weight loss: reduced fresh weight loss
[2]; dicamba 1.25 ppm
  Mean relative weight loss: 17.09%
  Observed efficacy: 10.69%
[2]; dicamba 12.5 ppm
  Mean relative weight loss: 15.74%
  Observed efficacy: 17.76%
[3]; dicamba 1.25 ppm
  Mean water loss: 0.781 g
  Observed efficacy: −4.8%
[3]; dicamba 12.5 ppm
  Mean water loss: 0.765 g
  Observed efficacy: −2.7%
[3]; dicamba 125 ppm
  Mean water loss: 0.737 g
  Observed efficacy: 1.1%
[3]; lower concentrations
  transpiration (water loss): increased transpiration

## Cn1cc(C(=O)Nc2ccccc2-c2cc(F)c(F)c(F)c2)c(C(F)F)n1 [Fluxapyroxad, N-(3′,4′,5′-trifluorobiphenyl-2-yl)-3-difluoromethyl-1-methyl-1H-pyrazole-4-carboxamide]
[1]
  stimulation of the growth of the cotyledons: no stimulation of the growth
[1]; fluxapyroxad 5 ppm
  Mean cotyledon biomass: 47.1 mg
  Observed efficacy: −1.9%
[2]
  fresh weight loss: reduced fresh weight loss
[2]; fluxapyroxad 10 ppm, 24 h incubation, then 60 minutes on filter paper (25° C., 50% rel. humidity)
  Mean relative weight loss: 17.62%
[2]; fluxapyroxad 10 ppm, relative weight loss compared to the control
  Observed efficacy: 7.94%
[2]; fluxapyroxad 50 ppm
  Mean relative weight loss: 13.61%
  Observed efficacy: 28.89%
[3]; fluxapyroxad 10 ppm, 24 h at 25° C., 50% relative humidity
  Mean water loss: 1.061 g
[3]; fluxapyroxad 10 ppm, water loss compared to the control
  Observed efficacy: −42.4%
[3]; fluxapyroxad 50 ppm
  Mean water loss: 0.660 g
  Observed efficacy: 11.5%
[3]; fluxapyroxad 100 ppm
  Mean water loss: 0.607 g
  Observed efficacy: 18.5%
[3]; higher concentrations
  transpiration (water loss): decreased transpiration
[3]; lower concentrations
  transpiration (water loss): increased transpiration
